Source: US12661410B2, “Compounds for targeted degradation of RET” (C4 Therapeutics, Inc., priority 2020, dated 2026)
Numbering of substitutions follows the chain as printed. Where two headings read alike, the source gives them in different places.

Experiments:
RET(KD: 658-1114 G810R) = biological target: T1, RET(KD: 658-1114 G810R) (Homo sapiens, UniProt P07949, G810R); experiment: HiBiT-Degradation, RET G810R degradation assay (Nano-Glo HiBiT Lytic), 293T.165 cells; assay type: cell-based; details: for Emax / DC50: 6.0 hours
T1 construct: 658-1114; expressed in transfected cells; host or cells: 293T.165 (293T cells, generated in-house)
T1 sequence (P07949 658-1114 G810R): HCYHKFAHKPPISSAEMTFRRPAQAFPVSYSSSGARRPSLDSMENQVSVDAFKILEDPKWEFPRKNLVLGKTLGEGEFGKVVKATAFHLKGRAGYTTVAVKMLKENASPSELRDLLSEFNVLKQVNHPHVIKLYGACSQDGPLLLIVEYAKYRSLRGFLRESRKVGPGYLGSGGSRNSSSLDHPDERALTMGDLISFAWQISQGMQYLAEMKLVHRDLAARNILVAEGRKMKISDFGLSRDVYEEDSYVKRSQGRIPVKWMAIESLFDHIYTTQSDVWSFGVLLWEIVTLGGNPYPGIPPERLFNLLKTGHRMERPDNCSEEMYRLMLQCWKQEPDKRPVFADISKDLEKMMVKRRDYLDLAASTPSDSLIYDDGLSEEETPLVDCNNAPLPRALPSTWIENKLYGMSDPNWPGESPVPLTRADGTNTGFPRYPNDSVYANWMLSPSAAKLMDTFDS
In short: (§1)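 6 h treatment, 293T.144 (WT) / 293T.165 (G810R) cells ectopically expressing HiBiT-fused RET KD; 11-pt half-log dilution, top 10 μM, n=2. Nano-Glo HiBiT lytic detection, luminescence. Output: DC50, Emax (% protein remaining).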

RET (658-1114) = biological target: T2, RET (658-1114) (Homo sapiens, UniProt P07949); experiment: HiBiT-Degradation, RET wild-type degradation assay (Nano-Glo HiBiT Lytic), 293T.144 cells; assay type: cell-based; details: for Emax / DC50: 6.0 hours
T2 construct: 658-1114; expressed in transfected cells; host or cells: 293T.144 (293T cells, generated in-house)
T2 sequence (P07949 658-1114): T1 sequence (P07949 658-1114 G810R) with R153G
In short: as §1

[1] = % remaining protein, read-out: 293T.165 RET(KD: 658-1114 G810R) 6.0 hours (Emax)
[2] = half-maximal degradation concentration, read-out: 293T.165 RET(KD: 658-1114 G810R) 6.0 hours (DC50)
[3] = % remaining protein, read-out: 293T.144 RET (658-1114) 6.0 hours (Emax)
[4] = half-maximal degradation concentration, read-out: 293T.144 RET (658-1114) 6.0 hours (DC50)

SMILES | 293T.165 RET(KD: 658-1114 G810R) 6.0 hours (IP) [nM] (RET(KD: 658-1114 G810R)) | Emax (RET(KD: 658-1114 G810R); [1]) [%] | DC50 (RET(KD: 658-1114 G810R); [2]) [nM] | 293T.144 RET (658-1114) 6.0 hours (IP) [nM] (RET (658-1114)) | Emax (RET (658-1114); [3]) [%] | DC50 (RET (658-1114); [4]) [nM] | 293T.165 RET(KD: 658-1114 G810R) 6.0 hours (Emax) (RET(KD: 658-1114 G810R); HiBiT-Degradation) | 293T.165 RET(KD: 658-1114 G810R) 6.0 hours (IP) [nM] (RET(KD: 658-1114 G810R); HiBiT-Degradation) | DC50 (RET(KD: 658-1114 G810R); HiBiT-Degradation, read-out: 293T.165 RET(KD: 658-1114 G810R) 6.0 hours (DC50)) [nM] | 293T.144 RET (658-1114) 6.0 hours (IP) [nM] (RET (658-1114); HiBiT-Degradation) | DC50 (RET (658-1114); HiBiT-Degradation, read-out: 293T.144 RET (658-1114) 6.0 hours (DC50)) [nM] | Emax (RET (658-1114); HiBiT-Degradation, read-out: 293T.144 RET (658-1114) 6.0 hours (Emax)) [%] | HiBiT-Degradation 293T.165 RET(KD: 658-1114 G810R) 6.0 hours (IP) [nM] (RET(KD: 658-1114 G810R); RET G810R) | DC50 (RET(KD: 658-1114 G810R); RET G810R, read-out: HiBiT-Degradation 293T.165 RET(KD: 658-1114 G810R) 6.0 hours (DC50)) [nM] | Emax (RET(KD: 658-1114 G810R); RET G810R, read-out: HiBiT-Degradation 293T.165 RET(KD: 658-1114 G810R) 6.0 hours (Emax)) [%] | HiBiT-Degradation 293T.144 RET (658-1114) 6.0 hours (IP) [nM] (RET (658-1114); RET wild-type) | DC50 (RET (658-1114); RET wild-type, read-out: HiBiT-Degradation 293T.144 RET (658-1114) 6.0 hours (DC50)) [nM] | Emax (RET (658-1114); RET wild-type, read-out: HiBiT-Degradation 293T.144 RET (658-1114) 6.0 hours (Emax)) [%]
COc1ccc(CC2(O)CCN(c3ccc(-c4nc(-c5cnn([C@H]6CC[C@H](N7CCN(c8cc(OC)c(NC9CCC(=O)NC9=O)cc8F)CC7)CC6)c5)cn5ncc(C#N)c45)cn3)CC2)nc1 (stereo partly shown) [Compound 215, 6-[1-[4-[4-[4-[(2,6-dioxo-3-piperidyl)amino]-2-fluoro-5-methoxy-phenyl]piperazin-1-yl]cyclohexyl]pyrazol-4-yl]-4-[6-[4-hydroxy-4-[(5-methoxy-2-pyridyl)methyl]-1-piperidyl]-3-pyridyl]pyrazolo[1,5-a]pyrazine-3-carbonitrile] | ++++ (<50 nM = ++++) | < 30 | < 50 | ++++ (<50 nM = ++++) | < 30 | < 50 | – | – | – | – | – | – | – | – | – | – | – | –
COC1(C(=O)NC(C)C)CCN(c2ccc(-c3cc(-c4cnn(C5CCN(C(=O)CN6CCC(c7ccc(NC8CCC(=O)NC8=O)cc7F)CC6)CC5)c4)cn4ncc(C#N)c34)cn2)CC1 (stereo not shown) [Compound 6, 1-[5-[3-cyano-6-[1-[1-[2-[4-[4-[(2,6-dioxo-3-piperidyl)amino]-2-fluoro-phenyl]-1-piperidyl]acetyl]-4-piperidyl]pyrazol-4-yl]pyrazolo[1,5-a]pyridin-4-yl]-2-pyridyl]-N-isopropyl-4-methoxy-piperidine-4-carboxamide] | – | < 50 | < 50 | – | – | – | +++ (<50% = +++) | ++++ (< 50 nM = ++++) | < 50 | ++++ (< 50 nM = ++++) | < 50 | < 30 | – | – | – | – | – | –
N#Cc1cnn2cc(-c3cnn(C4CCN(C(=O)CC5(O)CCN(c6ccc(NC7CCC(=O)NC7=O)cc6F)CC5)CC4)c3)cc(-c3ccc(N4CCC(c5ccc(O)cc5)CC4)nc3)c12 (stereo not shown) [Compound 197, 6-[1-[1-[2-[1-[4-[(2,6-dioxo-3-piperidyl)amino]-2-fluoro-phenyl]-4-hydroxy-4-piperidyl]acetyl]-4-piperidyl]pyrazol-4-yl]-4-[6-[4-(4-hydroxyphenyl)-1-piperidyl]-3-pyridyl]pyrazolo[1,5-a]pyridine-3-carbonitrile] | ++++ (<50 nM = ++++) | < 30 | < 50 | ++++ (<50 nM = ++++) | < 30 | < 50 | – | – | – | – | – | – | – | – | – | – | – | –
CCC1(C(=O)NC(C)C)CCN(c2ccc(-c3nc(-c4cnn(C5CCN(C(=O)CC6(O)CCN(c7ccc(NC8CCC(=O)NC8=O)cc7)CC6)CC5)c4)cn4ncc(C#N)c34)cn2)CC1 (stereo not shown) [Compound 85, 1-[5-[3-cyano-6-[1-[1-[2-[1-[4-[(2,6-dioxo-3-piperidyl)amino]phenyl]-4-hydroxy-4-piperidyl]acetyl]-4-piperidyl]pyrazol-4-yl]pyrazolo[1,5-a]pyrazin-4-yl]-2-pyridyl]-4-ethyl-N-isopropyl-piperidine-4-carboxamide] | – | < 50 | < 100 | – | – | – | – | – | – | – | – | – | ++++ (< 50 nM = ++++) | < 100 | < 50 | ++++ (< 50 nM = ++++) | < 50 | < 30
